{"source": "patent EP4215193A1", "about": "“METHOD FOR THE CONSERVATIVE TREATMENT OF ENDOMETRIAL POLYPS” (Kiselev, Vsevolod Ivanovich, priority 2020, dated 2022)", "key": {"[1]": {"system": "pathological neoangiogenesis", "conditions": "subcutaneously, 5 mg / kg, daily; cited from earlier work"}, "[2]": {"experiment": "Clinical comparison of efficacy of DIM + βCD complex and crystalline DIM taken orally", "assay_type": "in vivo", "conditions": "equal dosages, all studied groups of patients", "from_the_text": "Clinical studies have compared the efficacy of the water-soluble DIM + βCD complex and crystalline 3,3'-diindolylmethane in equal dosages when taken orally. […]"}}, "data": [{"compound": "c1ccc2c(Cc3c[nH]c4ccccc34)c[nH]c2c1", "note": "[DIM, 3,3'-diindolylmethane]", "values": [{"measurement": "inhibition of pathological neoangiogenesis", "setting": "[1]", "value": 74, "unit": "%"}]}, {"compound": "3,3'-diindolylmethane [Crystal DIM]", "values": [{"measurement": "clinical response", "setting": "[2]", "value": "absence of such"}]}]}
